Experimental findings from ChEMBL document CHEMBL1127581, “Evolution of a novel series of [(N,N-dimethylamino)propyl]- and piperazinylbenzanilides as the first selective 5-HT1D antagonists” (J Med Chem, 1994) are described below.

pKi: −log10 of the molar value. Bounds are passed on as bounds.

In assay [1] the target is T1, Adrenergic receptor alpha-2 (Homo sapiens, UniProt P08913+P18825+P18089).
T1 sequence (P08913 whole entry): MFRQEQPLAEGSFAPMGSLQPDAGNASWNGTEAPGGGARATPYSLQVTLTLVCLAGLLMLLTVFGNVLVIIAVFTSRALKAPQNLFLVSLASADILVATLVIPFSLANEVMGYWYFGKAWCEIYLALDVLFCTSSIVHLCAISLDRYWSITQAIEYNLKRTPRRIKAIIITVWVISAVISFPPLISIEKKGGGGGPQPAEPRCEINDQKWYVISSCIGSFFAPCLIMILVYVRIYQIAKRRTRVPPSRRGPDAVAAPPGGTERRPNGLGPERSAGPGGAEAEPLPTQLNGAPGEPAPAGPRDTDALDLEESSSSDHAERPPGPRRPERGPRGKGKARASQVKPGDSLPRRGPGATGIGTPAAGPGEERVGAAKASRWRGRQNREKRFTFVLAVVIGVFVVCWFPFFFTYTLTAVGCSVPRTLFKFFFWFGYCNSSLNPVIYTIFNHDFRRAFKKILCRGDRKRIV
T1 sequence (P18825 whole entry): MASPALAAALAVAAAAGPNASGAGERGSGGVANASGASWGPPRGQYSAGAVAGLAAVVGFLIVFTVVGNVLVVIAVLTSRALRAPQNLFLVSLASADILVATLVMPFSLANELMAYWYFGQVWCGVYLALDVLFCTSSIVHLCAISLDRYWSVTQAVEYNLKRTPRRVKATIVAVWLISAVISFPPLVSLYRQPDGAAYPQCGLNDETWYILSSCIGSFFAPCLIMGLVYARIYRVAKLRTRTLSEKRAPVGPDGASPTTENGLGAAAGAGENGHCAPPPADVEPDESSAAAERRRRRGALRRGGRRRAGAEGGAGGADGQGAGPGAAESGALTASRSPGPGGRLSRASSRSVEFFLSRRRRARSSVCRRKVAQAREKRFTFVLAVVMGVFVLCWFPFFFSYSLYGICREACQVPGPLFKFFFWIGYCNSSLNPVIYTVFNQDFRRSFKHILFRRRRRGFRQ
T1 sequence (P18089 whole entry): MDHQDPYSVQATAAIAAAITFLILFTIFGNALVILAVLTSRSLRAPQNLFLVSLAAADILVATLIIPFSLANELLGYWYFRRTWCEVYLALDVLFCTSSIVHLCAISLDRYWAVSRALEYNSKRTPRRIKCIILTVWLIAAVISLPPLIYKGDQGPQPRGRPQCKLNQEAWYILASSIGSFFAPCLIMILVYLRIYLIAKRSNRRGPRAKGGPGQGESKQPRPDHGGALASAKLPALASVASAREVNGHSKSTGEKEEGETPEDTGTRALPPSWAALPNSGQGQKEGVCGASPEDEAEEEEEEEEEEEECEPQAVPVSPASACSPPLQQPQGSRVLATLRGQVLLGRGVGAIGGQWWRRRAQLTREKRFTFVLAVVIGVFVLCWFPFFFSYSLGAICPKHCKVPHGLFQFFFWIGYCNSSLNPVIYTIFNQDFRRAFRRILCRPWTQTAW
Nature of the assay: Binding affinity against alpha-2 adrenoceptor. In kind it is protein assay.

Assay [2] deals with T2, Muscarinic acetylcholine receptor M2 (Homo sapiens, UniProt P08172).
T2 sequence (P08172 whole entry): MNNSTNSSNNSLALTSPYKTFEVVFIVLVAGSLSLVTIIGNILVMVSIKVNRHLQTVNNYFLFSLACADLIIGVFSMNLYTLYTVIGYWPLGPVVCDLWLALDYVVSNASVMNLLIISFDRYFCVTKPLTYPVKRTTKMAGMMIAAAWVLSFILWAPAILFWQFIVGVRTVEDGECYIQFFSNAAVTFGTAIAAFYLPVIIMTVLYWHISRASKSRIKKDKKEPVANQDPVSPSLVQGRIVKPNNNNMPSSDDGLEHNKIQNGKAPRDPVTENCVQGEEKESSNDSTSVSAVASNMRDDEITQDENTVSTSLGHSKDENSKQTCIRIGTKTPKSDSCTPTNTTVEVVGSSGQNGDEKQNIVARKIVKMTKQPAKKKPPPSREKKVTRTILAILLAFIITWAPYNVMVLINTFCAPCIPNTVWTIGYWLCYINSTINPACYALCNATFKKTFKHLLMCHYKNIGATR
Nature of the assay: Binding affinity against muscarinic M2 receptor.

Assay [3] deals with 5-hydroxytryptamine receptor 4 (Homo sapiens, UniProt Q13639). Nature of the assay: Binding affinity against 5-hydroxytryptamine 4 receptor.
Chain of 5-hydroxytryptamine receptor 4 (Q13639 whole entry): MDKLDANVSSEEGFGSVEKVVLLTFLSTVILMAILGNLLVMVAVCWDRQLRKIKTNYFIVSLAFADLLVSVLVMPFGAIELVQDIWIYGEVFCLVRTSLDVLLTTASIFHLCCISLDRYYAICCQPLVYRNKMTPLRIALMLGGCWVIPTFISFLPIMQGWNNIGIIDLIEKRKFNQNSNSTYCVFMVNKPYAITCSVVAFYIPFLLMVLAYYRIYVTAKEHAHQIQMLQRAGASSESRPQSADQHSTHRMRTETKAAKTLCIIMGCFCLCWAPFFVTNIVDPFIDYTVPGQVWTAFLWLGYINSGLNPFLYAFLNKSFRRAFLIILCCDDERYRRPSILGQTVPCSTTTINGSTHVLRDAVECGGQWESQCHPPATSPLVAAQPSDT
Assay [4] concerns the target 5-hydroxytryptamine receptor 1B (Rattus norvegicus, UniProt P28564). Nature of the assay: In vitro binding affinity towards 5-hydroxytryptamine 1B receptor in rat striatal membrane with [125I]- iodocyanopindolol. The assay is classed as cell membranes, Striatum.
In assay [5] the target is Muscarinic acetylcholine receptor M3 (Homo sapiens, UniProt P20309). Put plainly: Binding affinity against muscarinic M3 receptor.
Chain of Muscarinic acetylcholine receptor M3 (P20309 whole entry): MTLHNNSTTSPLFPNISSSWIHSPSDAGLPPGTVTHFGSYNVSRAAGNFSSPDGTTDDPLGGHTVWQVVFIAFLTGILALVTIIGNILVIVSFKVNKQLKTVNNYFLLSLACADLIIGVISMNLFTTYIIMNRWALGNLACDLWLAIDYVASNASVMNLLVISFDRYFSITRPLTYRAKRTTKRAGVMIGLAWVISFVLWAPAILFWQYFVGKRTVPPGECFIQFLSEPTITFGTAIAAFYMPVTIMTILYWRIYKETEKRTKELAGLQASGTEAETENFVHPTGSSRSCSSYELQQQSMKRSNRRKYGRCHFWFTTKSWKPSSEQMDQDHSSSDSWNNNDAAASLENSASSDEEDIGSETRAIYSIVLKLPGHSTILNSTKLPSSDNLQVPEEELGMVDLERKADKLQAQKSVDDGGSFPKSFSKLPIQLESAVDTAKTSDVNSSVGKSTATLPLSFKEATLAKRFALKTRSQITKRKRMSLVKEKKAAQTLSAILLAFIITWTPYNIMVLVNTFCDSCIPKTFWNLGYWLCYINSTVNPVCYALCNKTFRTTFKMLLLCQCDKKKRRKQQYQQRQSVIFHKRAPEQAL

Chain of 5-hydroxytryptamine receptor 1B (P28564 whole entry): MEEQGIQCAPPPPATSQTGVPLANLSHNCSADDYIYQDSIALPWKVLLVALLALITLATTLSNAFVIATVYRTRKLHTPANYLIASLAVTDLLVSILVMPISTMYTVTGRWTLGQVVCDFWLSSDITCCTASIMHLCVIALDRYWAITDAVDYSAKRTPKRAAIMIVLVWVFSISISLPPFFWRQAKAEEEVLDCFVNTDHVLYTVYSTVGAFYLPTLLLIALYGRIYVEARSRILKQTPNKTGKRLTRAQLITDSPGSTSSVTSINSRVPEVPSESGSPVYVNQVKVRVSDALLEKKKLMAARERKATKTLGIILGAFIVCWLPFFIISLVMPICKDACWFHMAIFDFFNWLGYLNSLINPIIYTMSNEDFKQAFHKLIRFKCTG

As to `COc1ccc(NC(=O)c2ccc(-c3ccc(-c4noc(C)n4)cc3C)cc2)cc1N1CCN(C)CC1` [GR-127935], the Log Ki in assay [1] was over -6. The pKi in assay [2] was under 6.00; in assay [3] it was under 5.00; in assay [4], 8.50; in assay [5], under 6.00.
